Source: ChEMBL document CHEMBL1201862, “PubChem BioAssay data set” (2004)
The source made the active and inactive calls. Rule as the data show it, for most assays here: actives have a measured EC50 and inactives only a lower limit.

Columns and labels:
[1] = viability of uninfected HEp-2 cells – cell-based, HTS, cytotoxicity control for RSV inhibitor project, dose response (AID 2410); assay type: functional; details: human respiratory syncytial virus
Streptokinase A = target: T1, Streptokinase A (Streptococcus pyogenes serotype M1, UniProt P10520); assay: viability-normalized secreted streptokinase activity reduction – plasminogen activation absorbance, OD405, dose response (AID 1914); assay type: functional, Streptococcus pyogenes M1 GAS;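 also: secreted streptokinase activity via plasminogen activation per viability signal from cell pellet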
T1 sequence (P10520 whole entry): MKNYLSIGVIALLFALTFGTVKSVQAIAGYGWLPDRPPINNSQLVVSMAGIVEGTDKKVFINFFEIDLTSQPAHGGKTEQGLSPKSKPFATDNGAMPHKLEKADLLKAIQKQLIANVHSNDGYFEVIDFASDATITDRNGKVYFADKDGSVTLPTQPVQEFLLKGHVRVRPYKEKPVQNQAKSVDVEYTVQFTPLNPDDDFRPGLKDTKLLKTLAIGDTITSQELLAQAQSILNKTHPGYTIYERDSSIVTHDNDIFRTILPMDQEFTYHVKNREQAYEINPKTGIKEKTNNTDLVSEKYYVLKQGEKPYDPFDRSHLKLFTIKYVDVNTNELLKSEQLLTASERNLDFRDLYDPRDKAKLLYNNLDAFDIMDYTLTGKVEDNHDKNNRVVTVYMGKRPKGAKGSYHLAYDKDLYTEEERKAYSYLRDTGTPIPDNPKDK

Streptococcus = assay: GAS UMAA2166 growth inhibition – luminescence, BacTiterGlo, counter-screen for streptokinase expression inhibitor project, dose response (AID 1915); assay type: functional, organism-based;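 also: potency for reduction of bacterial viability or growth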
[2] = tested on: Streptococcus sp. 'group A'; assay: Streptococcus pyogenes SK(-)GAS viability under kanamycin – luminescence, BacTiterGlo, confirmation, counter-screen for streptokinase expression inhibitor project, dose response (AID 1900); assay type: functional, organism-based
[3] = target: T2, Rac GTPase-activating protein 1 (Homo sapiens, UniProt Q9H0H5); assay: blockers of MgcRacGAP-driven Rac1 GTP hydrolysis – biochemical, ADP Hunter fluorescence, primary and confirmatory, confirmation (AID 624330); assay type: functional
T2 sequence (Q9H0H5 whole entry): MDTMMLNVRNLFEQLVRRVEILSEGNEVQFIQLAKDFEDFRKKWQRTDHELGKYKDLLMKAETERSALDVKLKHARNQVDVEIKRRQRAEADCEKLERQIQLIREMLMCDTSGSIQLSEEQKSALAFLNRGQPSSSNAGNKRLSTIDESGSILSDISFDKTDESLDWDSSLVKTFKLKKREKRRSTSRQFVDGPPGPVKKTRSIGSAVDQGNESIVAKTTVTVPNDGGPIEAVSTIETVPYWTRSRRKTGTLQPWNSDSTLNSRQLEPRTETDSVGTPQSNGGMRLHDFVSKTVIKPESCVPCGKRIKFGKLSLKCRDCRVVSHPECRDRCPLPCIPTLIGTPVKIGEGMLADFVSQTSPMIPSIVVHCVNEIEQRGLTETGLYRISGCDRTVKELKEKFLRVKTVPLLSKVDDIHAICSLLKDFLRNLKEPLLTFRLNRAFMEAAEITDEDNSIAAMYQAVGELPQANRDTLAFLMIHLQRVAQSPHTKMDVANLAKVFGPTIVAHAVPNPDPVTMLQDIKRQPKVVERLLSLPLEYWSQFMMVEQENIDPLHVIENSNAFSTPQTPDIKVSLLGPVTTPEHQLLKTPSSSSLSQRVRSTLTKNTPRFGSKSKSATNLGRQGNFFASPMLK

[4] = Trypanosoma cruzi growth suppression in host cells – NIH3T3 host cells, beta-gal luminescence, confirmation (AID 2044); assay type: functional, cell-based;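 also: intracellular parasites grown in NIH/3T3 mouse fibroblasts as host cells; luminescent beta-galactosidase reporter signal from transgenic T. cruzi replicating inside host cells; inhibitors lower the luminescence signal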
[5] = NIH3T3 cell viability loss – ATP luminescence, mouse fibroblasts, counter-screen, dose response (AID 2010); assay type: functional, cell-based;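 also: cells exposed to compound for about 90 hours before reading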
[6] = Luminescence Cell-Based Dose Retest to Confirm Inhibitors of Cancer Stem Cells. [Related pubchem assays (depositor defined):AID2717, AID2721]; assay type: functional; details: Homo sapiens
Paired box protein Pax-8 = Paired box protein Pax-8 (Homo sapiens, UniProt Q06710); assay: PAX8 transcriptional activity inhibition in RMG-I – RMG-I cells, luciferase, cherry-pick, dose response (AID 687027); assay type: functional, cell-based;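 also: luciferase reporter driven by Pax8 target thyroperoxidase promoter measured by SteadyGlo luminescence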
[7] = Luminescence Cell-Based Dose Response HTS to Identify Activators of Luciferase Translation or Activity in H4 […] Cells. [Related pubchem assays: 1829 (Project Summary), 1814 (Primary HTS)]; assay type: functional
H4 = assay: Luminescence Cell-Based Dose Response HTS to Identify Activators of 5'UTR Stem-Loop Driven Prion Protein mRNA Translation in H4 Neuroglioblastoma Cells. [Related pubchem assays: 1829 (Project Summary), 1814 (Primary HTS)]; assay type: functional; details: Homo sapiens
[8] = Luminescence Cell-Based Dose Confirmation HTS to Identify Activators of 5'UTR Stem-Loop Driven Alpha-Synuclein mRNA Translation in H4 Neuroglioblastoma Cells. [Related pubchem assays: 1829 (Project Summary), 1814 (Primary HTS)]; assay type: functional
[9] = target: T3, Ubiquitin-conjugating enzyme E2 N (Homo sapiens, UniProt P61088); assay type: functional;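 also: Dose-response confirmation in a TR-FRET assay detecting UBC13-driven polyubiquitin chain formation, inhibition measured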
T3 sequence (P61088 whole entry): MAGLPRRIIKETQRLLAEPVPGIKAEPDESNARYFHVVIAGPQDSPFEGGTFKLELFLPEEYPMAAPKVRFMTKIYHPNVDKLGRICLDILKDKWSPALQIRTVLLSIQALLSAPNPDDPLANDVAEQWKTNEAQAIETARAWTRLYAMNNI

[10] = viability of PTEN-deleted HCT116 cells – cell-based, HCT116 PTEN knockout, dose response (AID 1047); assay type: functional;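 also: HCT116 colon tumor cells with PTEN knocked out; cells exposed to compound for 60 hours before readout; potency for loss of cell viability measured by luminescence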
[11] = viability of HCT116 lacking mutant beta-catenin – cell-based, human colon tumor, dose response (AID 1045); assay type: functional;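 also: HCT116 colon tumor cells with beta catenin knocked out; cells exposed to compound for 60 hours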
[12] = NIH-3T3 fibroblast cytotoxicity, dose response, cytotoxicity control, cell-based, fluorescence, Alamar Blue, secondary assay (AID 2327); assay type: functional;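 also: NIH-3T3 mouse fibroblasts cultured with fluconazole at 8 µg/mL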
[13] = fluconazole-exposed Candida albicans growth modulators – fluorescence, retest, confirmation (AID 2467); assay type: functional, cell-based

Paired box protein Pax-8, sequence (Q06710 whole entry): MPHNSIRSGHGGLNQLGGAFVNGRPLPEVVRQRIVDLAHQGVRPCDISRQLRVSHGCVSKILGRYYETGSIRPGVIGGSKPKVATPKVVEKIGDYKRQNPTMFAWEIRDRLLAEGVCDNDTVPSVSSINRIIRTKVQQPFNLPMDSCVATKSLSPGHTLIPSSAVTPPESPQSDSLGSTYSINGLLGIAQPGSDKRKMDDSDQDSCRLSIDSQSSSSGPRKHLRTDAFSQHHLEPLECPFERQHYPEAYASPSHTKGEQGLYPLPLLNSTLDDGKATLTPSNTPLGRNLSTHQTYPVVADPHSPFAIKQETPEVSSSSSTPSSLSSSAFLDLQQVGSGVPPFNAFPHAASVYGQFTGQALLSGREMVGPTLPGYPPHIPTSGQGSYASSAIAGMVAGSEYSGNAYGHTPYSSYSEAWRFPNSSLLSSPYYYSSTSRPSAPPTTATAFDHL

COc1cc(OC)c(NC(=O)C2CCN(S(=O)(=O)c3ccc4c(c3)CC(C)N4C(C)=O)CC2)cc1Cl (stereo unspecified)
CC50 [1]: > 50 µM (active)

CCc1sc(C(=O)Nc2nccs2)cc1C
EC50 (Streptokinase A): > 150 µM (not active)
EC50 (Streptococcus): > 150 µM (not active)
EC50 [2]: > 150 µM (not active)

COc1cccc(CC(=O)OCC(=O)Nc2nnc(-c3ccccc3)o2)c1
EC50 (Streptokinase A): > 150 µM (not active)
EC50 (Streptococcus): > 150 µM (not active)
EC50 [2]: 7.82 µM (active)

CCOc1ccccc1NC(=O)C(NCCN(C)C)c1ccccc1 (stereo unspecified)
IC50 [3]: 91.1 µM (active)

CCOC(=O)c1c(NC(=O)CCS(=O)(=O)c2ccccc2)sc2c1CCN(C)C2
EC50 (Streptokinase A): > 150 µM (not active)
EC50 (Streptococcus): > 150 µM (not active)
EC50 [2]: > 150 µM (not active)

O=C1[C@@H]2Cc3c([nH]c4ccccc34)C(c3cccc(Br)c3)N2C(=O)CN1C1CCN(Cc2ccccc2)CC1 (stereo partly specified)
EC50 [4]: 1.32 µM (active)
EC50 [5]: 9.95 µM (active)
AC50 [6]: 6.9 µM (active)
AC50 (Paired box protein Pax-8): 12.1 µM (active)

C[C@]12CCC(O)CC1CCC1C2CC[C@]2(C)C(c3cc(C(F)(F)F)[nH]n3)CCC12 (stereo partly specified)
AC50 [6]: 1.67 µM (active)
EC50 (Streptococcus): 3.87 µM (active)
CC50 [1]: 8.08 µM (active)
EC50 [2]: 1.17 µM (active)

N#Cc1nc(-c2cccc3ccccc23)oc1NCCN1CCCCC1
EC50 [7]: 12 µM (active)
EC50 (H4): > 120 µM (not active)
EC50 [8]: 12.4 µM (active)
IC50 [9]: > 20 µM (inactive)

CC1CN(c2nc(-c3ccc(Br)cc3)nnc2-c2ccccc2)CC(C)N1 (stereo unspecified)
EC50 [10]: 11.3 µM (active)
EC50 [11]: 10 µM (active)

C=CCc1cccc(/C=N/c2cc(Br)ccc2O)c1O
IC50 [3]: 14.7 µM (active)

CCOC(=O)c1cnc(-n2cc(C)cn2)nc1Nc1ccccc1OCC
EC50 [12]: 44.2 µM (active)
EC50 (Streptokinase A): > 150 µM (not active)
EC50 (Streptococcus): 6.46 µM (active)
EC50 [13]: > 38 µM (not active)
EC50 [2]: 4.47 µM (active)

COc1ccc(-n2c(O)cc(=O)nc2SCC(=O)Nc2ccccc2)cc1
EC50 (Streptokinase A): > 150 µM (not active)
EC50 (Streptococcus): > 150 µM (not active)
EC50 [2]: 67.3 µM (active)

c1ccc(CNc2ccc(N3CCOCC3)cc2)cc1
IC50 [3]: 8.18 µM (active)

N#C/C(=C\c1ccc(OCc2ccccc2)cc1)C(=O)Nc1nc2c(s1)CCN(Cc1ccccc1)C2
CC50 [1]: 28.8 µM (active)
